The record followed here is US8173428B2, “LNA oligonucleotides and the treatment of cancer” (Santaris Pharma A/S, priority 2004, dated 2012).

For one data set, the system named is complementary RNA. Kind of data set: Measurement of melting temperature (Tm) of the duplex. Conditions: 3 μM, 10 mM sodium phosphate/100 mM NaCl/0.1 nM EDTA, pH 7.0. It counts as binding. The method, then:
Measurement of melting temperature (Tm) of the compounds: A 3 μM solution of SEQ ID NO. 2 in 10 mM sodium phosphate/100 mM NaCl/[…], pH 7.0 was mixed with its complement DNA/RNA 3 μM in 10 mM sodium phosphate/100 mM NaCl/[…], pH 7.0 at 90° C. for a minute and allowed to cool to room temperature. The Tm of the duplex was then determined by increasing the temperature 1° C./min. from 25 to 95° C. The Tm of SEQ ID NO.

Data set [1] has as its system 15PC3 cells. Kind of data set: Caspase 3/7 activity (apoptosis) in transfected 15PC3 cells. It counts as cell-based, human. The method, then: (§1) Culturing of cells: 15PC3 was cultured in DMEM (Sigma) containing 10% fetal bovine serum, Glutamax I and gentamicin at 37° C., 95% humidity and 5% CO2. The cervical carcinoma cell line HeLa were cultured in MEM (Sigma) containing 10% fetal bovine serum, Glutamax I and gentamicin at 37° C., 95% humidity and 5% CO2. When reaching 60-70% confluency, the cells were transfected using Lipofectamine 2000 (5 μg/ml).
15PC3 cells were seeded to a density of 10000 cells per well in white 96-well plates (Nunc 136101) in DMEM the day prior to transfection. The next day cells were washed once in prewarmed OptiMEM followed by addition of 72 μl OptiMEM containing 5 μg/ml Lipofectamine-2000 (In vitrogen). Cells were incubated for 7 min before adding 18 μl oligonucleotides diluted in OptiMEM. The final oligonucleotide concentration ranged from 0.2 nM to 100 nM. After 4 hours of treatment, cells were washed in OptiMEM and 100 μl DMEM containing serum was added. Following oligonucleotide treatment, cells were allowed to recover for the period indicated before they were removed from the CO2 incubator and equilibrated to room temperature for 15 min. 100 μl of the highly sensitive Caspase 3/7-Glo™ Reagent (Promega) was added directly to the cells, and the plates were incubated for 20 min. Luminescence (luciferase activity) was recorded in a Luminoskan Ascent instrument (Thermo Labsystems). The luciferase activity is measured as Relative Light Units per seconds (RLU/s). The data was analysed using the Ascent software 2.4.2. Graphs of fold induction relative to mock were generated using MS Excel.
Staurosporine, Camptothecine or Taxol induced cells served as positive controls (see FIGS. 3, 6A and Table 4 plus Example 21).

The nature of data set [2]: Oligonucleotide content in cynomolgus monkey tissues (4 weeks repeat dose study). It counts as in vivo, cynomolgus monkeys. Conditions: i.v. twice weekly for four weeks, then 4 weeks untreated. The method, then:
In an i.v. 4 weeks repeat dose toxicity study in cynomolgus monkeys SEQ ID NO. 2 was administered at doses of 0, 6, 15 and 60 mg/kg/occasion twice weekly for four weeks. In the groups of animals receiving 0, 15 or 60 mg/kg/occasion some animals were followed for a recovery period of 4 weeks without treatment.
Tissues including liver and kidney samples were snap frozen and stored at −70° C. for subsequent analysis.
Tissues (˜100 mg) is weighed off (tissue is kept on dry-ice before and after weighing). 500 μl extraction buffer containing proteinase K (1 mg/ml) is added. The tissue is homogenized mechanically and the homogenate is incubated over night at 37° C.
Reference samples are prepared by dissolving SEQ ID NO. 2 in extraction buffer at the relevant concentration range. Exactly 100 mg liver tissue from un-treated animals is weighed off (kept on dry-ice before and after weighing). Extraction buffer (with proteinase K, 1 mg/ml) containing the reference material is added to the tissue samples to a total volume of 0.5 ml. The tissue is mechanically homogenized and is incubated over night at 37° C. The detection signal of SEQ ID NO. 2 from these samples is used to prepare a standard curve covering the lowest and the highest concentrations found in the treated animals.
Tissue samples are transferred to 2 ml microtubes with screw caps. […]

For another data set, the system named is mice. Kind of data set: i.v. acute toxicity study in mice. It counts as in vivo. From the text:
For SEQ ID NO. 2 the following was found among others in preclinical toxicity studies: […]

A short description of data set [3]: Stability in human plasma. It counts as in vitro ADME. Conditions: 20 μM, 37° C., up to 96 hours. The procedure: Stability of 20 μM SEQ ID NO. 2 and SEQ ID NO. 24 in human and mouse plasma (Li-Heparine (Taconic, M&B)) at 37° C. at different time aliquots: 0, 1, 2, 4, 24, 48 and 96 hours. A commercially available ladder was also included (10 and 20 mer are visible on the PAGE). (see FIG. 1)

The subject of data set [4] is 15PC3 cells. Kind of data set: MTS assay of proliferating viable cells. It counts as cell-based, human. The method, then:
as §1
Cells were seeded to a density of 10000 cells per well in clear 96 well plate (Scientific Orange no. 1472030100) in DMEM the day prior to transfection. The next day cells were washed once in prewarmed OptiMEM followed by addition of 72 μl OptiMEM containing 5 μg/ml Lipofectamine 2000 (Invitrogen). Cells were incubated for 7 min before adding 18 μl oligonucleotides diluted in OptiMEM. […] After 4 hours of treatment, cells were washed in OptiMEM and 100 μl serum containing DMEM was added. Following oligonucleotide treatment cells were allowed to recover for the period indicated, viable cells were measured by adding 20 μl of the tetrazolium compound [3-(4,5-[…])-5-(3-carboxymethoxyphenyl)-2-(4-sulfophenyl)-2H-tetrazolium, inner salt; MTS] and an electron coupling reagent (phenazine ethosulfate, PES; CellTiter 96® AQueous One Solution Cell Proliferation Assay, Promega). Viable cells were measured at 490 nm and 650 nm in a Powerwave (Biotek Instruments).
The inhibition of growth rate ΔOD (490-650 nm)/h was plotted against the oligonucleotide concentration relative to mock, which was set to 100%. The maximum inhibition of proliferation observed in the MTS assay was 70% (minimum 30%). (Table 5 and FIG. 5)

Where two headings read alike, the source gives them in different places. Oligonucleotides are written 5' to 3', each unit as a sugar letter and its base; * is a phosphorothioate linkage, no mark a phosphodiester; rarer units and linkages stand in square brackets, end groups in braces. Plain capitals give the bases only. l = locked nucleic acid (LNA); [5mC] = 5-methylcytosine; d = 2'-deoxy (DNA)

Consider “5′-^MeCsTs^MeCsAsastscscsastsgsgs^MeCsAsGsc-3′ (l[5mC]*lT*l[5mC]*lA*dA*dT*dC*dC*dA*dT*dG*dG*l[5mC]*lA*lG*dC) [SEQ ID NO. 2]”, for which the “Tm (° C.) complementary RNA” value in the data set on complementary RNA worked out at 75.3 °C. For the same substance, the “Apoptosis At 5 nM, 24 hours” value in the data set on 15PC3 cells [1] (5 nM, 24 hours (Table 7, FIG. 3)) was 3.5-fold. Moreover, the “Max Apoptosis” value in the data set on 15PC3 cells [1] (25 nM, 24 hours (Table 7)) was 6.5-fold. The “Maximum Induction Fold-induction of apoptosis, Caspase 3/7 assay” value in the data set with 15PC3 cells [1] (25 nM, 48 hours, 15PC3 cells) is listed as 6.9 x (25 nM, 48 hours). In addition, the “Fold induction of apoptosis, Caspase 3/7 assay” value in the data set on 15PC3 cells [1] (24 hours, 5 nM, 15PC3 cells, relative to mock) came to 3.5 x. The “Content in liver of recovery animals” value in data set [2] is recorded as “detectable”. In the data set on mice, the maximum non-lethal dose was 1000 mg/kg. The “Stability in human plasma (degradation products)” value in data set [3] was “No degradation products”. In addition, the “Proliferation (relative number of viable cells)” value in the data set with 15PC3 cells [4] (0.2, 1, 5, 25 and 100 nM, 13-72 hours after transfection, 15PC3 cells) was “dose dependent inhibition of proliferation”. Moreover, the IC50 in the data set with 15PC3 cells [4] (48 hours (Table 7, FIG. 5), read-out: Proliferation IC50 (48 hours)) was 5 nM; with 15PC3 cells [4] (48 hours, transfected 15PC3 cells (Table 5), read-out: Inhibition of proliferation, MTS assay IC50 (48 hours)) it was 4.9 nM.
